Measurements: US11447638B2, “Acetalanthraquinone derivatives useful for cellular staining” (BIOSTATUS LIMITED, priority 2016, dated 2022)

Key:
2780/cp70 = test: Further tests against cell lines, 2780/cp70; type: cell-based; settings: ratio to A2780
MCP1 = test: Further tests against cell lines, MCP1; type: cell-based; settings: ratio to A2780
Procedure: (§1) Further tests were carried out against A2780, 2780AD and MCP1 cell lines.

2780AD = test: Further tests against cell lines, 2780AD; type: cell-based; settings: ratio to A2780
Procedure: as §1

[1] = Absorption and fluorescence spectra of compounds in PBS or HEPES; type: physicochemical; settings: for peak excitation wavelength: excitation wavelength used for fluorescence spectra of FIG. 1A/1B; for fluorescence emission, 540 nm (Ex in PBS): excited at 540 nm; for fluorescence emission, 540 nm (Ex in PBS) / fluorescence emission, λ1 nm (Ex in HEPES) / fluorescence emission, λ1 nm (Ex in PBS): 20 μM; for fluorescence emission, λ1 nm (Ex in HEPES) / fluorescence emission, λ1 nm (Ex in PBS): excited at absorption peak 1 (λ1)
Procedure: The compounds were exited at 540 nm and at the wavelength of their absorption peak 1 (λ1 nm). The far-red fluorescent DNA dye DRAQ5 was used as reference.
Compounds were dissolved in DMSO (Sigma) to 20 mM stock concentration. DRAQ5 (Biostatus Ltd) was used as a control anthraquinone agent dissolved in deionised water. Working solutions were prepared in PBS (phosphate buffered saline; Sigma) or HEPES (4-(2-hydroxyethyl)-1-piperazineethanesulfonic acid; Sigma) at 20 or 40 μM. Probe solutions (20 μM), respectively in PBS or HEPES, were pipetted into a 1 mL quartz cuvette (Thermo Fisher Scientific). After obtaining baseline spectra in relevant buffer to zero the instrument, absorbance measurements were obtained using a Beckmann Coulter DU 800 UV/Visible spectrophotometer. The excitation wavelengths were scanned from 280 to 800 nm. Fluorescent spectral scans were performed using a Perkin Elmer LS-50B Luminescence spectrophotometer. To obtain emission scans, the excitation wavelength was set accordingly to the maximum values for each agent or another designated excitation wavelength that matches typical laser lines; and the emission wavelength were scanned from 400 nm to 900 nm in 1 nm increments. A Xenon flash lamp was used as the light source, with the lamp energy set to high. For each data point ten measurements were acquired with the photomultiplier tube sensitivity set at 125.
Compounds were excited at a wavelength corresponding to the first absorbance peak 1 (FIG. 1A and FIG. 1B show absorption (line) and fluorescence (dots) spectra of compounds; both are normalised to peak value.

[2] = test system: fixed human osteosarcoma U-2 OS cells; test: Labelling of fixed cells, wide-field fluorescence microscopy; type: cell-based; settings: 20 μM, 1 h exposure in PBS, FIG. 2
Procedure: Cells were seeded in a 24 well coverslip bottomed-plate, cultured overnight in McCoys media. 24 or 48 hours later the cells were washed gently with 3×2 mL PBS per well. The PBS was removed and 0.5 mL of 4% paraformaldehyde solution [a 4% paraformaldehyde solution in PBS was made fresh each time from a 16% stock solution (Thermo Fisher Scientific)] was added in each well and cells were incubated for 30 min. The paraformaldehyde was removed and cells were washed 3×2 mL PBS per well. 1 mL of PBS or HEPES was added to each well.
(§2) Before analysis, cells were incubated at 37° C. in the dark for the period designated. Samples were analysed directly without any further washing step. For live cell labelling cells were seeded, plated in a similar way, into a similar multi-well dish for optimal optical performance and could be used across all microscope platforms.
(§3) This basic protocol was the standard for testing the patterns of AAQ agents at 20 μM, compared to 20 μM of DRAQ5 as the benchmark reference (both in terms of cellular location and ability to detect the red fluorescence).
Low resolution wide-field fluorescence microscopy was used to evaluate cell labelling in fixed human osteosarcoma U-2 OS cells. The system was an Axiovert 100 microscope (Carl Zeiss, Welwyn Garden City, UK) ×10 0.3 NA air objective lens and an ORCA-ER CCD camera (Hamamatsu, Reading, UK). Illumination was controlled by a shutter in front of the transmission lamp. Image capture was controlled using Metamorph software. This evaluates the ability of the compounds to label cellular compartments without active uptake or efflux prohibiting delivery into the given cell. Image collection was performed after 1 h of exposure to probes in PBS. The calibration bar represents 50 μm.

A549 live cells = test: Loading of A549 live cells, wide-field fluorescence microscopy; type: cell-based, human; settings: 20 μM, 30 min incubation, FIG. 3
Procedure: as §2, §3
Low resolution wide-field fluorescence microscopy was used to evaluate cell uptake and localisation of the probe compounds. The system was an Axiovert 100 microscope (Carl Zeiss, Welwyn Garden City, UK) ×10 0.3 NA air objective lens and an ORCA-ER CCD camera (Hamamatsu, Reading, UK). Illumination was controlled by a shutter in front of the transmission lamp. Image capture was controlled using Metamorph software. Human non-small cell lung cancer A549 cell line was used as the cell model to determine whether variation of the probe loading and localisation occurred in cell population sustaining a “side population” (SP) (Smith P J, Wiltshire M, Chappell S C, Cosentino L, Burns P A, Pors K, Errington R J. Kinetic analysis of intracellular Hoechst 33342—DNA interactions by flow cytometry: misinterpretation of side population status? Cytometry A 2013; 83:161-9) with a known capacity to efflux xenobiotic molecules, including the DNA dye Hoechst 33342.
Cells were incubated for 30 min with each compound and then images were collected at a 30 ms exposure time using low resolution wide-field fluorescence microscopy. Using an Axiovert 100 microscope (Carl Zeiss, Welwyn Garden City, UK) ×10 0.3 NA air objective lens and an ORCA-ER CCD camera (Hamamatsu, Reading, UK). Illumination was controlled by a shutter in front of the transmission lamp. Image capture was controlled using Metamorph software. The calibration bar represents 50 μm.

U-2 OS cells = test: Confocal laser scanning microscopy (CLSM) localisation analysis; type: cell-based, human; settings: 30 min incubation, Ex 637 nm, Em >665 nm; for subcellular localisation by CLSM: FIG. 4 and 5
Procedure: Confocal laser scanning microscopy (CLSM) was used to analyse the localisation of compounds BST-100, BST-101 and BST-106 with the U-2 OS cells, as it permitted the acquisition of volume limited optical sections through the cell and media. Excitation (637 nm) and emission (>665 nm) values for the probe analysis were the optimal conditions. The data sets obtained were processed and assembled into a single maximum projection image.
The patterns were analysed after 30 min incubation at different z depths and eliminating the solution background. The nucleus/cytoplasm ratio was calculated to quantify the localisation of the probe per cell.
A Radiance CLSM (BioRad Microscience) was used attached to an inverted Nikon microscope. Image acquisition was performed using excitation (637 nm) and emission (>665 nm) wavelengths. The histogram plot reports the nucleus/cytoplasm index to determine DNA binding in live cells. The calibration bar represents 10 μm.
The compounds BST-108, BST-109 were analysed in the same way.

MCF7 = test: MTT cellular viability (growth inhibition) assay, MCF7; type: cell-based; settings: Homo sapiens, 0.25-100 μM, 72 h, Table 3
Procedure: (§4) The viability of A549 or MCF7 in response to compounds was determined using the MTT (3-(4,5-dimethylthiazolyl-2-)-2, 5-diphenyltetrazolium bromide) assay according to the protocol set out in Mosmann T., Rapid colorimetric assay for cellular growth and survival: application to proliferation and cytotoxicity assays. Journal of immunological methods 1983; 65:55-63.
(§5) Initially, cells were seeded into a rounded-bottom 96 well plate (Corning) at six different cell seeding densities (0.5×104, 1×104, 2×104, 3×104, 4×104, and 5×104) per mL of R10 media (cells/mL) in order to optimise the assay and establish the most suitable seeding assay. Concentration of 1×10^4 cells/mL was determined to be the optimum seeding density for both cell lines for 96 h total incubation. A control lane contained supplemented R10 only. The 96 well plates were incubated overnight at 37° C., 5% CO2 and 100% humidity to allow cell adhesion. Cells were then treated respectively with novel AAQs (0.25-100 μM) or growth inhibition (IC50) of compounds of the invention was studied against MCF7 and A549 cancer cell lines. Compounds were tested with a concentration range between 0.25 and 100 μM for 72 h and doxorubicin, as positive cytotoxic control, was tested in parallel at the same doses.

A549 = test: MTT cellular viability (growth inhibition) assay, A549; type: cell-based; settings: Homo sapiens, 0.25-100 μM, 72 h, Table 3
Procedure: as §4, §5

A549 cells = test: Flow cytometry analysis of cell uptake before/after hydrolysis; type: cell-based, human; settings: 20 μM, 30 min; for % ile (25): low loader cell population
Procedure: Flow cytometry analysis was performed to evaluate the effect of pre-treatment with HCl to generate an active aldehyde on the cell uptake properties. A549 cells were incubated for 30 min with compounds of Formula (I) and its hydrolysed forms (20 μM) prior to analysis. The rate of uptake was tested in A549 cell culture media and in Aldefluor buffer, containing the MDR-blocker verapamil (Pearce and Bonnet 2007), to evaluate the effect in uptake with/without the Aldefluor assay system. Analysis was conducted in the viable subset of cells, corresponding to ˜95% of the total amount under investigation.
Aldefluor buffer contained verapamil vs. cell media. The cells were incubated with 20 μM of the respective AAQ/HAAQs (30 min) before analysis
Statistical analysis of A549 uptake before/after hydrolysis was also studied. Experiments were performed in cell media versus Aldefluor buffer. Data were processed using FlowJo software (Tree Star). DRAQ5 was used to set the dynamic range and as control dye and empty cells were used to determine auto-fluorescence.

[3] = solution: Aldefluor buffer with verapamil

Compound	RF (2780/cp70)	RF (MCP1) (MCP1)	RF (2780AD)	peak excitation wavelength [1]	fluorescence emission, 540 nm (Ex in PBS) [1]	fluorescence emission, λ1 nm (Ex in HEPES) [1]	fluorescence emission, λ1 nm (Ex in PBS) [1]	fluorescence brightness / background in fixed cells [2]	staining pattern in fixed cells [2]	staining pattern in live cells (A549 live cells)	specific feature of localisation by CLSM (U-2 OS cells)	subcellular localisation by CLSM (U-2 OS cells)	IC50 (MCF7)	IC50 (A549)	Median (fluorescence, uptake) (A549 cells; [3])	% ile (25) (A549 cells; [3])	Median (fluorescence, uptake) (A549 cells; solution: media)	% ile (25) (A549 cells; solution: media)	fluorescence brightness / background in live cells (A549 live cells)
N.N.[Cl][Pt][Cl] [Cisplatin, reference compound]	5.37	1.26	4.6																
COC(CNCCNc1ccc(NCCN(C)C)c2c1C(=O)c1c(O)ccc(O)c1C2=O)OC [BST-302, 1-((2-((2,2-dimethoxyethyl)amino)ethyl)amino)-4-((2-(dimethylamino)ethyl)amino)-5,8-dihydroxyanthracene-9,10-dione]	0.32	0.61	81.4																
COC(CC(=O)NCCNc1ccc(NCCN(C)C)c2c1C(=O)c1c(O)ccc(O)c1C2=O)OC [BST-111, N-(2-(4-(2-(Dimethylamino)ethylamino)-5,8-dihydroxy-9,10-dioxo-9,10-dihydroanthracen-1-ylamino)ethyl)-3,3-dimethoxypropanamide]				610 nm	684 nm	684 nm	684 nm	very high background fluorescence	cytoplasmic staining and heterogeneity on labelling of mitotic figures	greater contrast and diffuse cellular staining	mainly loaded in the nuclear compartment	strong nuclear uptake and perinuclear staining, with possible ER accumulation	1.8 µM	38.2 µM	74.94	64.64	72.42	62.72	
COC(CCCCNc1ccc(NCCN(C)C)c2c1C(=O)c1ccccc1C2=O)OC [BST-106, 1-(5,5-Dimethoxypentylamino)-4-(2-(dimethylamino)ethylamino) anthracene-9,10-dione]				584 nm	670 nm	664 nm	660 nm	very bright background	diffuse cytoplasmic staining, with some perinuclear and nucleoli labelling	heterogeneous cytoplasmic staining		additional nuclear signal	11.3 µM	11.7 µM	96.13	81.66	101.48	84.64	high background
COC(CNC(=O)CCNc1ccc(NCCN(C)C)c2c1C(=O)c1c(O)ccc(O)c1C2=O)OC [BST-108, N-(2,2-Dimethoxyethyl)-3-(4-(2-(dimethylamino)ethylamino)-5,8-dihydroxy-9,10-dioxo-9,10-dihydroanthracen-1-ylamino)propanamide]				610 nm	692 nm	684 nm	685 nm		heterogeneity in cytoplasmic staining and positive spots in the nuclei			strong nuclear uptake and perinuclear staining, with possible ER accumulation	1.44 µM	1.7 µM	67.08	57.65	75.48	65.32	very bright cellular fluorescence
